According to patent publication US20190192524A1, “Modulators of Caspase-6” (The University of British Columbia, priority 2014, published 2019):

Tests used:
[1] = biological target: T1, human caspase 6 lacking the pro-domain (Homo sapiens, UniProt P55212); experiment: Lamin A cleavage in HEK 293 cells overexpressing caspase-6 (Mesoscale ELISA); type: cell-based; parameters: The transfected DNA encodes amino acids 24-293 of the human caspase 6 enzyme with a C-terminal DDK tag; DDK-tag (C); expressed in transfected cells; host or cells: HEK 293; conditions: 24 hr incubation; cleaved lamin A quantified; read-out: HEK intracellular IC50
T1 sequence (P55212 with tags, fused parts or gaps): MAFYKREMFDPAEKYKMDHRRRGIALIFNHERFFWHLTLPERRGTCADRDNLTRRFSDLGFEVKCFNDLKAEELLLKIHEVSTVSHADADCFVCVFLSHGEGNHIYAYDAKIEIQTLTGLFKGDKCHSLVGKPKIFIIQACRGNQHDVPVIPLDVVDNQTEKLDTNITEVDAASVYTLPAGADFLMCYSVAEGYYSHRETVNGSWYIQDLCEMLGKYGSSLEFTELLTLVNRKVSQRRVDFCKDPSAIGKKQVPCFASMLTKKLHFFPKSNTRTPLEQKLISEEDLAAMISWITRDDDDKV
Description: HEK 293 cells were grown in DMEM supplemented with 10% fetal bovine serum, 1%/penicillin/streptomycin and 0.5% glutamine. Transfections were performed using the Fugene reagent (Roche) according to manufacturer's instructions. The transfected DNA encodes amino acids 24-293 of the human caspase 6 enzyme with a C-terminal DDK tag under the control of a CMV promoter (vector pCMVSport6) (SEQ ID NO: 2). The transfected HEK 293 were used to measure the intracellular activity of caspase-6 as evidenced by cleavage of the lamin substrate (described below).
The quantitative assessment of intracellular lamin cleavage in caspase-6 transfected HEK 293 cells was done as described previously (Ehrnhoefer et al. PLoS One, 2011. 6(11):e27680) Briefly, HEK 293 cell lysates were adjusted to 1 μg protein/μl in lysis buffer, diluted to 0.2 μg/μl in PBS and 5 μl were added to a Multi-Array high-bind 96 well plate (Mesoscale discovery). After incubation at room temperature for 1 h, the wells were blocked by adding 150 μl 5% BSA in PBS, followed by further incubation at room temperature for 1 h. Wells were then washed 3× with 150 μl PBS+0.05% Tween, and 25 μl antibody mix was added (Cell signaling #2036 at 1:100 dilution, Mesoscale discovery goat-anti-rabbit sulfo-tag at 1:500 dilution in PBS with 1% BSA). After lh incubation at room temperature, the wells were washed 3× with 150 μl PBS+0.05% Tween, and 150 μl/well 2× reading reagent (Mesoscale discovery) was added. The plate was read on a Sector imager 6000 (Mesoscale discovery).
The PG3 analog compounds were also tested for their ability to inhibit caspase-6 within cultured cells. HEK 293 cells were transfected with human caspase 6 lacking the pro-domain and were incubated with increasing concentrations of the PG3 analogs. After a 24 hr incubation, the excess compound was washed away, the cells were lysed and the amount of cleaved lamin A protein was quantified by the Mesoscale ELISA method.

primary cortical neurons = experiment: Neuronal viability during excitotoxic (NMDA) stress, intracellular ATP; type: cell-based, FVB/N mice; conditions: 10 uM compound; NMDA 25 uM or 50 uM, 20 h
Description: Cortical neuronal cultures from FVB mice were prepared as described (Metzler et al, J Neurosci (2007) 27(9):2298). […] The measurement of intracellular ATP was used as an assessment of neuronal viability as described previously (Uribe et al, HMG 2012. 21(9):1954-67) using the Cell-titer glo kit from Promega according to manufacturer's instructions.
It has been previously been shown in HD animal models that neuronal cells expressing mHTT have an increased vulnerability to excitotoxic stress (Graham et al. 2005. Neurobiol. Dis. 21:444-455) and that this may be mediated by caspase 6 (Graham et al. 2006. Cell 6(13):1179-1191 and Uribe et al HMG 2012; 21(9):1954-67). The link between NMDA-induced toxicity and other neurodegenerative diseases has been reviewed by Lipton et al., Nat Rev Drug Discovery 2006. 5:160-170. Therefore, the effect of the presence of the PG-3d compound on the ability of neuronal cells to survive during excitotoxic stress via its ability to inhibit the caspase-6 enzyme was investigated.

[2] = biological target: T2, interaction between 1212AA Htt and caspase-6 (Homo sapiens, UniProt P55212); experiment: Co-immunoprecipitation of Htt with caspase-6 antibody from COS-7 lysates; type: cell-based; conditions: 10 uM compound, vs DMSO
T2 construct: DDK-tag (C); expressed in transfected cells; host or cells: COS-7
T2 sequence (P55212 with tags, fused parts or gaps): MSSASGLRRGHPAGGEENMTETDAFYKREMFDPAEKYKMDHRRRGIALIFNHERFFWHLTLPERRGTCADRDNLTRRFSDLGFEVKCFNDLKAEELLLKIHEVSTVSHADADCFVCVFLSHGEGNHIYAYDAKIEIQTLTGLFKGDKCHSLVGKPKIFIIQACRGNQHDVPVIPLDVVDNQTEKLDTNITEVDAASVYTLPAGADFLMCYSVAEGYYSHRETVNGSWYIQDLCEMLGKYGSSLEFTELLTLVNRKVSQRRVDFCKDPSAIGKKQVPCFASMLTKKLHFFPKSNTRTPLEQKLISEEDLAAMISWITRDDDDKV
Description: COS-7 cells were co-transfected with the 1212 amino acid HTT fragment (SEQ ID NO: 3) and the full length human caspase-6 enzyme (SEQ ID NO:4). The co-transfected cells were exposed to either 10 uM of the PG3d compound, 3 uM of the Q-VD-Oph pan-caspase inhibitor or were treated with DMSO as a control. An aliquot of the cell lysates were subjected to Western blotting to detect HTT fragments with the Htt antibody 2166 (Millipore) and the presence of caspase-6 was detected using the HD91 antibody (Ehrnhoefer et al, HMG, 2014. 23(3):717-29). The remaining cell lysates (500 ug protein) were immunoprecipitated with 5 ug of Caspase-6 antibody for 16 hrs at 4 C. The immunoprecipitated proteins were then applied to acrylamide gels and immunoblotted to detect either the HTT fragments or the presence of the active caspase 6 enzyme using the antibodies described above.
As expected, the DMSO control lysates reveal a variety of Htt fragments within the immunocomplexes, including 513AA fragment generated by caspase-3 cleavage, the full-length 1212AA Htt and the 586AA fragment generated by caspase-6 cleavage. When the cells are treated with the pan-caspase inhibitor Q-VD-OPh, the amount of Htt cleavage fragments interacting with caspase-6 is reduced and it is evident that caspase-6 is primarily interacting with the 1212 AA Htt.

With `O=c1oc(C#Cc2ccccc2)nc(O)c1Cc1ccccc1` [PG-3d, 5-Benzyl-4-hydroxy-2-(phenylethynyl)-6H-1,3-oxazin-6-one] the melting point was 179 to 181 °C, the IC50 [1] was 2600 nM and the “cell viability (intracellular ATP)” value (primary cortical neurons) was “significant improvement”. The “interaction between 1212AA Htt and caspase-6 (co-immunoprecipitated Htt)” value [2] was “significantly reduces”.
